According to patent US6015941A, “Peptide derivatives of tachyplesin having antimicrobial activity” (Pioneer Hi-Bred International, Inc., priority 1997, dated 2000):
Read-outs that look alike come from different tables or passages of the source. Positions of bridges follow the written chain, without caps; N, C: chain ends. Residues, ends and D or L forms follow the SMILES beside them.

Experiments:
Aspergillus flavus = type: cell-based
Fusarium graminearum = type: cell-based
Fusarium moniliforme = type: cell-based
E. coli = type: cell-based
[1] = test system: Salmonella typhimurium (ATCC 13311); type: cell-based
[2] = test system: Pseudomonas aeruginosa (ATCC 21036); type: cell-based
[3] = test system: Staphylococcus aureaus (ATCC 25923); type: cell-based, S. aureus
[4] = test system: Shigella dysenteriae (ATCC 13313); test: Disk diffusion assay, human pathogens; type: cell-based
[5] = test system: Candida albicans (ATCC 10231); type: cell-based
[6] = test system: maize protoplasts (Black Mexican Sweet)
human erythrocytes [7] = details: red cells of human, 100 μM
human erythrocytes [8] = details: cited from earlier work
[9] = average of two independent measurements, SD 15%
[10] = minimum complete inhibitory concentration, average of two measurements

mastoparan [mastoporan]
A. flavus MCIC (Aspergillus flavus): > 50 | A. flavus MIC (Aspergillus flavus): 24 µM | F. graminearum MCIC (Fusarium graminearum): 8 | F. graminearum MIC (Fusarium graminearum): 5 µM | F. moniliforme MCIC (Fusarium moniliforme): 11 | F. moniliforme MIC (Fusarium moniliforme): 3 µM

CC[C@H](C)[C@H](NC(=O)CN)C(=O)NCC(=O)N[C@@H](C)C(=O)N[C@H](C(=O)N[C@@H](CC(C)C)C(=O)N[C@@H](CCCCN)C(=O)N[C@H](C(=O)N[C@@H](CC(C)C)C(=O)N[C@H](C(=O)N[C@H](C(=O)NCC(=O)N[C@@H](CC(C)C)C(=O)N1CCC[C@H]1C(=O)N[C@@H](C)C(=O)N[C@@H](CC(C)C)C(=O)N[C@H](C(=O)N[C@@H](CO)C(=O)N[C@@H](Cc1c[nH]c2ccccc12)C(=O)N[C@H](C(=O)N[C@@H](CCCCN)C(=O)N[C@@H](CCCNC(=N)N)C(=O)N[C@@H](CCCCN)C(=O)N[C@@H](CCCNC(=N)N)C(=O)N[C@@H](CCC(N)=O)C(=O)N[C@@H](CCC(N)=O)C(N)=O)[C@@H](C)CC)[C@@H](C)CC)[C@@H](C)O)[C@@H](C)O)C(C)C)C(C)C [Melittin]
lysis of rabbit erythrocytes (rabbit erythrocytes): complete lysis

CC[C@H](C)[C@@H]1NC(=O)CNC(=O)[C@H](CCCNC(=N)N)NC(=O)[C@H](Cc2ccc(O)cc2)NC(=O)[C@@H]2CSSC[C@H](NC1=O)C(=O)N[C@@H](Cc1ccc(O)cc1)C(=O)N[C@@H](CCCNC(=N)N)C(=O)N[C@@H](CCCNC(=N)N)C(=O)N[C@H](C(=O)N[C@@H](CCCNC(=N)N)C(=O)O)CSSC[C@H](NC(=O)[C@H](Cc1c[nH]c3ccccc13)NC(=O)[C@@H](N)CCCCN)C(=O)N[C@@H](Cc1ccccc1)C(=O)N[C@@H](CCCNC(=N)N)C(=O)N[C@@H](C(C)C)C(=O)N2 [TP, tachyplesin] (H-KWCFRVCYRGICYRRCR-OH; disulfide 3-16, 7-12)
A. flavus MCIC (Aspergillus flavus): 34 | A. flavus MIC (Aspergillus flavus): 13 µM | F. graminearum MIC (Fusarium graminearum; [9]): 8 µM | F. graminearum MCIC (Fusarium graminearum; [10]): 17 µM | F. moniliforme MCIC (Fusarium moniliforme): 21 | F. moniliforme MIC (Fusarium moniliforme): 8 µM | E. coli MCIC (E. coli): 3 | E. coli MIC (E. coli): 1 µM | S. typhimurium zone size [1]: 18 mm | P. aeruginosa zone size [2]: 14 mm | S. aureus zone size [3]: 18 mm | S. dysenteria zone size ([4]; 50 μg per disk): 18 mm | S. dysenteria zone size ([4]; 100 μg per disk): 18 mm | C. albicans zone size [5]: 16 mm | order of toxicity as measured by cell viability [6]: TPF>TP/TPM>TPI/TPL>TPY>TPA/TPV and TPD | lysis of rabbit erythrocytes (rabbit erythrocytes): little or no activity | hemolysis of human erythrocytes (human erythrocytes [7]): about 15%

CC[C@H](C)[C@@H]1NC(=O)CNC(=O)[C@H](CCCNC(=N)N)NC(=O)[C@H](Cc2ccc(O)cc2)NC(=O)[C@@H]2CSSC[C@H](NC1=O)C(=O)N[C@@H](Cc1ccc(O)cc1)C(=O)N[C@@H](CCCNC(=N)N)C(=O)N[C@@H](CCCNC(=N)N)C(=O)N[C@H](C(=O)N[C@@H](CCCNC(=N)N)C(N)=O)CSSC[C@H](NC(=O)[C@H](Cc1c[nH]c3ccccc13)NC(=O)[C@@H](N)CCCCN)C(=O)N[C@@H](Cc1ccccc1)C(=O)N[C@@H](CCCNC(=N)N)C(=O)N[C@@H](C(C)C)C(=O)N2 [amidated-TP] (H-KWCFRVCYRGICYRRCR-NH2; disulfide 3-16, 7-12)
hemolysis of human erythrocytes (human erythrocytes [7]): about 30% | lysis of human erythrocytes (human erythrocytes [8]): 100%

cecropin B
A. flavus MCIC (Aspergillus flavus): > 20 | A. flavus MIC (Aspergillus flavus): > 20 µM | F. graminearum MIC (Fusarium graminearum; [9]): 3 µM | F. graminearum MCIC (Fusarium graminearum; [10]): 5 µM | F. moniliforme MCIC (Fusarium moniliforme): 20 | F. moniliforme MIC (Fusarium moniliforme): 3 µM
